The record followed here is ChEMBL document CHEMBL1143452, “Synthesis and biological evaluation of 1-amino-1,1-bisphosphonates derived from fatty acids against Trypanosoma cruzi targeting farnesyl pyrophosphate synthase” (Bioorg Med Chem Lett, 2005).

Experiment [1] relates to Trypanosoma cruzi. Nature of the experiment: Inhibitory concentration against growth of Trypanosoma cruzi epimastigotes. In kind it is functional, organism-based.
Experiment [2] concerns Trypanosoma cruzi. Nature of the experiment: Inhibitory concentration against growth of Trypanosoma cruzi amastigotes. It is filed as functional, organism-based.

For `CCCC(N)(P(=O)(O)O)P(=O)(O)O`, the IC50 (in general, the point on the concentration scale where inhibition reaches its midpoint) in the experiment with Trypanosoma cruzi [1] is more than 100 µM; in the experiment on Trypanosoma cruzi [2], more than 85 µM.

In the case of `CCCCC(N)(P(=O)(O)O)P(=O)(O)O`, the values for the IC50 with Trypanosoma cruzi [1] and in the experiment on Trypanosoma cruzi [2] were more than 100 µM and more than 85 µM, respectively.

Regarding `CCC(N)(P(=O)(O)O)P(=O)(O)O`, the values for the IC50 in the experiment on Trypanosoma cruzi [1] and in the experiment on Trypanosoma cruzi [2] were more than 100 µM and more than 85 µM, respectively.

Turning to `CCCCCC(N)(P(=O)(O)O)P(=O)(O)O`, the figures for the IC50 in the experiment with Trypanosoma cruzi [1] and with Trypanosoma cruzi [2] were more than 100 µM and 77 µM, respectively.

For the compound `CC(N)(P(=O)(O)O)P(=O)(O)O`, the IC50 in the experiment with Trypanosoma cruzi [1] and in the experiment on Trypanosoma cruzi [2] was more than 100 µM throughout.

On to `CCCCCCC(N)(P(=O)(O)O)P(=O)(O)O`, for which the results for the IC50 in the experiment on Trypanosoma cruzi [1] and in the experiment with Trypanosoma cruzi [2] were more than 100 µM and 72 µM, respectively.
